In US12269859B2, “Synthetic immune receptors and methods of use thereof” (Angeles Therapeutics, Inc., priority 2016, dated 2025):

Tests used:
RAJI cells = experiment: RAJI xenograft model of lymphoma in NSG mice (survival); assay type: in vivo
Procedure: In vivo efficacy of SIR targeting CD19. […] SIR constructs and Gluc-PAC-G07 control construct encoding non-secretory form of Guassia Luciferase. Approximately half the cells were selected with puromycin while the other half was expanded without puromycin selection. NSG mice (Jackson Lab) were sub-lethally irradiated at a dose of 175 cGy. Approximately 24 hours post irradiation (day 2), mice were injected with 2.5×10^4 RAJI cells via tail-vein. […] Control mice (n=5) received no T cells or uninfected T cells. Mice were given human IL2 (400 IU intraperitoneally) on alternate days till the death of all mice in control group.
Approximately half the cells were selected with puromycin while the other half was expanded without puromycin selection. NSG mice (Jackson Lab) were sub-lethally irradiated at a dose of 175 cGy. Approximately 24 hours post irradiation (day 2), mice were injected with 2.5×10^4 RAJI cells via tail-vein. […] Control mice (n=5) received no T cells or uninfected T cells. Mice were given human IL2 (400 IU intraperitoneally) on alternate days till the death of all mice in control group.
SIR construct. NSG mice (Jackson Lab) were sub-lethally irradiated at a dose of 175 cGy. Approximately 24 hours post irradiation (day 2), mice were injected with 2.5×10^4 RAJI cells via tail-vein. […] SIR encoding lentivirus. Control mice (n=5) were injected with 5 million uninfected T cells or given no T cells.
SIR constructs. […] SIR were included as controls. NSG mice (n=5) were sub-lethally irradiated at a dose of 175 cGy. 24 hours post irradiation (day 2), mice were injected with 2.5×10^4 RAJI cells via tail-vein. […] Mice were given human IL2 (400 IU i.p.) on alternate days till the death of all mice in control group.
Human peripheral blood T cells isolated using CD3 magnetic beads were infected with lentiviruses expressing the indicated SIR constructs targeting Lym1 and Lym2. On day 1, the NSG mice were sub-lethally irradiated at a dose of 175 cGy. 24 hours post irradiation (day 2), mice were injected with 25×10^3 Raji cells intravenously. On day 3, the mice were treated intravenously with 10 million indicated CAR-T cells. Beginning on day 4, mice were injected with human IL-2 i.p. at a dose of 400 IU/mice every alternate day after the injection CAR-T cells till the death of all mice in control group.

[1] = tested on: target antigen-expressing cell line; experiment: Jurkat NFAT-GFP assay, coculture with target cell lines expressing the respective target antigen (summary Table 10A); assay type: cell-based, human; design: key: The signs +/−, +, 2+ etc. after the name of the cell lines indicate the relative degree of positivity on the Jurkat-NFAT-GFP assay as measured by the % GFP positive cells; +: relative degree of positivity on the Jurkat-NFAT-GFP assay as measured by the % GFP positive cells; 2+: relative degree of positivity on the Jurkat-NFAT-GFP assay as measured by the % GFP positive cells; details: relative % GFP positive cells; for NFAT-GFP ASSAY Positive Cell lines: NALM6: SIR-expressing Jurkat-NFAT-GFP cells cocultured with NALM6
Procedure: (B) Induction of NFAT promoter driven GFP expression. The control vector- and SIR-expressing Jurkat-NFAT-GFP cocultured for 4-24 hours with the target antigen-expressing cell line (described above) and their ability to bind to the target antigen is assayed by measuring induction of GFP expression using Flow Cytometry. Cellular supernatant is collected and assayed for the induction of cytokines (e.g., IL2).
Jurkat NFAT-GFP Assay For Synthetic Immune Receptors. The Jurkat-NFAT-GFP cells are engineered in such a way that the IL-2 promoter, which carries NFAT binding sites, is cloned upstream of the GFP gene. These cells have been used to study signaling via TCR and CAR. The different SIRs were stably expressed in Jurkat NFAT-GFP cells by lentiviral mediated gene transfer, followed by selection with puromycin. The SIR-expressing Jurkat-NFAT-GFP cells were cocultured with the target cells at E:T ratio of approximately 1:2 for approximately 4 hours to 18 hours. When the interaction between SIRs and their target antigen results in activation of the NFAT pathway, GFP expression is induced.
Induction of GFP expression by coculturing of Jurkat-NFAT-GFP cells expressing different SIR constructs and the different target cells was studied essentially as described previously (Wu, Roybal, Puchner, Onuffer, & Lim, 2015). GFP expression was monitored by FACS analysis. A few representative examples of this assay are shown in the FIG. 13A-B. In panel A, control Jurkat-NFAT-GFP cells or those expressing SIRs targeting CD19 (clone ID 051716-I08), MPL (Clone ID: 040716-A07) and BCMA (Clone ID: 011116-A07) were incubated with RAJI (top), HEL (middle) or U266 (bottom) cells, respectively. […] In panel B, Jurkat cells expressing SIR targeting CDH6 (Clone ID: 051716-J05), CD276 (Clone ID: 050516-Q06) and Her2/neu (Clone ID: 050516-I03) were incubated with SKOV3 (top) and […] (middle and bottom) cells, respectively. […] The Jurkat-NFAT-GFP cells were engineered to express different SIRs targeting other antigens and the experiment repeated upon coculture with the target cells expressing their respective target antigen. The Jurkat-NFAT-GFP (parental) cells were used as control. The names of different SIRs, their SEQ ID NOs, component antigen binding domains and TCR chains can be determined by reference to Tables 7A-7H. A SIR is considered positive in the assay in case the SIR expressing Jurkat-NFAT-GFP cells show greater % GFP positive cells when cultured with the target cell line as compared to parental Jurkat-NFAT-GFP cells. […] The signs +/−, +, 2+ etc. after the name of the cell lines indicate the relative degree of positivity on the Jurkat-NFAT-GFP assay as measured by the % GFP positive cells after culture of the SIR expressing Jurkat-NFAT-GFP cells with that cell line. […] In addition, great diversity of response against the same target cell line is observed with Jurkat cells expressing SIRs containing different antigen binding domains targeting the same antigen (e.g., SIRs having antigen binding domains derived form different CD19 antibodies) even when the SIRs share the same TCR chains and linkers. Finally, Jurkat cells expressing SIRs targeting different antigens (e.g. CD19 vs CD20) show a diversitiy of response when exposed to the same target cell line. Thus, a diverse immune response can be generated against a single target cell by combining SIRs with different TCR chains, linkers, antigen binding domains and target specificity. Table 10A also summarizes the results of GLuc based T cell cytotoxicity assay observed with different SIRs when exposed to their target cell lines. […]

[2] = FIG. 17: 2.5×10^4 RAJI cells, 5 million T cells on day 3, human IL2 (400 IU i.p.) on alternate days

Substance | Median Survival (RAJI cells; [2]) [days] | NFAT-GFP ASSAY Positive Cell lines: NALM6 [1] | Median Survival (RAJI cells; NSG mice, 2.5×10^4 RAJI cells via tail-vein, 5 million T cells on day 3, Table 13) [days] | survival (in words) (RAJI cells; experiment of Table 13) | NFAT-GFP ASSAY Positive Cell lines: RAJI ([1]; SIR-expressing Jurkat-NFAT-GFP cells cocultured with RAJI)
CD8SP-CD19Bu12-vL-V5-[TCRb-S57C-opt1]-F-P2A-SP-CD19Bu12-vH-Myc-[TCRa-T48C-opt1]-F-F2A-PAC [SEQ ID NO:1021] | 51 | (2+) | – | – | –
CD8SP-FMC63-vL-V5-[TCRb-S57C-opt1]-F-P2A-SP-FMC63-vH-Myc-[TCRa-T48C-opt1]-F-F2A-PAC [SEQ ID NO:900] | 28.0 | RAJI(2+), NALM6(2+) | 27 | conferred survival advantage | RAJI(2+), NALM6(2+)
